Test results as given in PubChem BioAssay (NCI).
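Following 48 hours of exposure in 96-well plates, responses at five concentrations were used to interpolate endpoints linearly. Here, GI50 denotes the concentration required for 50% inhibition of growth. The concentration for full growth arrest is given as TGI.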

Experiments:
Assay in all cases: inhibition of tumour cell growth, NCI panel, 48 h
SK-OV-3 ovarian = test system: SK-OV-3 ovarian
MALME-3M melanoma = test system: MALME-3M melanoma
HCC-2998 colon = test system: HCC-2998 colon
SK-MEL-2 melanoma = test system: SK-MEL-2 melanoma
KM12 colon = test system: KM12 colon
HOP-62 NSCLC = test system: HOP-62 NSCLC
SR leukemia = test system: SR leukemia
LOX IMVI melanoma = test system: LOX IMVI melanoma
SN12C renal = test system: SN12C renal
HCT-116 colon = test system: HCT-116 colon

Row | Structure (SMILES) | GI50 (SK-OV-3 ovarian) | TGI (SK-OV-3 ovarian) | GI50 (MALME-3M melanoma) | TGI (MALME-3M melanoma) | GI50 (HCC-2998 colon) | TGI (HCC-2998 colon) | GI50 (SK-MEL-2 melanoma) | TGI (SK-MEL-2 melanoma) | GI50 (KM12 colon) | TGI (KM12 colon) | GI50 (HOP-62 NSCLC) | TGI (HOP-62 NSCLC) | GI50 (SR leukemia) | TGI (SR leukemia) | GI50 (LOX IMVI melanoma) | TGI (LOX IMVI melanoma) | GI50 (SN12C renal) | TGI (SN12C renal) | GI50 (HCT-116 colon) | TGI (HCT-116 colon)
1 | CN(C)CC[C@H](CSc1ccccc1)Nc1ccc(S(=O)(=O)NC(=O)c2ccc(N3CCN(Cc4ccccc4-c4ccc(Cl)cc4)CC3)cc2)cc1[N+](=O)[O-] | 4.58 µM | 16.9 µM | 3.11 µM | 36.3 µM | 0.457 µM | 2.01 µM | 1.88 µM | 4.94 µM | 3.6 µM | 23.6 µM | 9.66 µM | > 60.2 µM | 3.85 µM | 40.2 µM | 2.77 µM | > 100 µM | 3.56 µM | > 56.7 µM | 2.93 µM | > 27.3 µM
2 | NS(=O)(=O)c1ccc(N=Nc2c(O)c(C(=O)O)cc3ccccc23)cc1 | – | > 100 µM | – | 65.9 µM | – | > 100 µM | – | > 100 µM | – | > 100 µM | – | > 100 µM | – | > 96.1 µM | – | > 100 µM | – | > 100 µM | – | > 100 µM
3 | Cc1nnc(Nc2ccc(NC(=O)Nc3ccc(Cl)cc3)cc2)c2ccccc12 | 2.61 µM | 6.59 µM | 2.17 µM | 4.79 µM | 2.84 µM | 8.09 µM | 2.22 µM | 4.59 µM | 1.99 µM | 4.53 µM | 1.81 µM | 3.7 µM | 2.56 µM | 9.55 µM | 1.75 µM | 3.27 µM | 2.86 µM | 9.41 µM | 1.86 µM | 3.59 µM
4 | COC(=O)C(=Cc1cc(OC)c(OC)c(OC)c1-c1cc2c(cc1C1(C)OCCS1)OCO2)C(=O)OC (stereo not given) | – | > 100 µM | – | > 100 µM | – | > 100 µM | – | 69.6 µM | – | 79.8 µM | – | > 100 µM | – | > 100 µM | – | > 100 µM | – | > 100 µM | – | > 100 µM
5 | O=C(Cc1ccc(F)c(Cl)c1)Nc1cc(C2(C(F)(F)F)CC2)nn1CC1CCCCC1 | 3.24 µM | 11 µM | 2.7 µM | 8.06 µM | 4.45 µM | > 15 µM | 3.99 µM | 13.3 µM | 3.74 µM | 12.3 µM | 3.96 µM | > 15 µM | 3.73 µM | 11.4 µM | 4.58 µM | > 15 µM | 4.46 µM | > 15 µM | 3.88 µM | > 15 µM
6 | CCn1c(O)c(/C=N/NC(=O)C(C)c2ccc(CC(C)C)cc2)sc1=S (stereo not given) | 0.666 µM | > 100 µM | 0.331 µM | > 43 µM | 0.839 µM | 13.7 µM | 3.19 µM | > 49.8 µM | 0.371 µM | > 32.8 µM | 0.549 µM | > 50.7 µM | 0.198 µM | > 100 µM | 0.594 µM | > 36.1 µM | 0.619 µM | > 40.3 µM | 0.397 µM | > 36.9 µM
